According to patent US20230149407A1, “Methods of Treating Coronavirus Disease 2019” (priority 2020, published 2023):
Entries after “also recorded” stand apart in the source; their conditions may differ.

Experiments:
[1] = system: moderately to severely active RA; assay: 12-week study in patients with moderately to severely active RA; assay type: in vivo, human; settings: doses of 200 and 400 mg as modified release (MR) tablets
[2] = system: blood transcriptional programs for type I interferons and IL-6; assay: blood transcriptional programs in healthy volunteers and RA patients; assay type: in vivo, human
inflammatory monocytes = assay: levels of inflammatory monocytes; design: species or system human; settings: in vivo
[3] = system: human bronchial epithelial cells; assay: chemokine production from human bronchial epithelial cells; assay type: cell-based
C-reactive protein (CRP) = assay: expected reduction in CRP (exposure response model); assay type: in vivo, human
LPS-induced TNFα = assay: acute model of endotoxin-induced inflammation in rats; assay type: in vivo, rat; settings: administered orally
[4] = system: imiquimod (a TLR7 agonist)-induced skin inflammation; assay: 5-day murine model of imiquimod-induced skin inflammation; assay type: in vivo; settings: 5-day murine imiquimod model
[5] = system: collagen-induced arthritis; assay: rat collagen-induced arthritis model; assay type: in vivo
hsCRP = hsCRP in healthy adults; assay type: in vivo, human
[6] = renal excretion of PF-06650833; settings: in vivo
IL-6 = assay: expected suppression of IL-6 at clinical tofacitinib doses; assay type: in vivo, human
IL-6/STAT3 signaling = assay: in-vitro IL-6/STAT3 signaling; assay type: cell-based; settings: both at 5 and 10 mg
[7] = system: IFNα, IFNβ, IFNγ, TNFα, IL-1, IL-2, IL4, IL-6, IL-7, IL-9, IL-10, IL-12, IL13, IL-15, IL-21, IL-23, and IL-27; settings: cited from earlier work

| Compound | efficacy in 12-week study in RA patients [1] | blood transcriptional programs for type I interferons and IL-6 [2] | levels of inflammatory monocytes (inflammatory monocytes) | chemokine production, IL-1β-stimulated release of CXCL8 and IL-6 [3] | reduction in CRP (C-reactive protein (CRP); 200 mg IR suspension Q6H) | reduction in CRP (C-reactive protein (CRP); 400 mg MR tablets QD (or 200 mg IR suspension Q6H)) | LPS-induced TNFα (LPS-induced TNFα) | ear swelling [4] | hind paw swelling [5] | levels of hsCRP (hsCRP) | renal excretion [6] | predicted suppression of IL-6 (IL-6; 5 mg BID dose) | suppression of IL-6 (IL-6; 10 mg BID dose, may be expected) | IL-6/STAT3 signaling (IL-6/STAT3 signaling) | levels of IFNα, IFNβ, IFNγ, TNFα, IL-1, IL-2, IL4, IL-6, IL-7, IL-9, IL-10, IL-12, IL13, IL-15, IL-21, IL-23, and IL-27 [7] |
| --- | --- | --- | --- | --- | --- | --- | --- | --- | --- | --- | --- | --- | --- | --- | --- |
| CC[C@@H]1[C@H](F)C(=O)N[C@@H]1COc1nccc2cc(C(N)=O)c(OC)cc12 [PF-06650833, 1-(((2S,3S,4S)-3-Ethyl-4-fluoro-5-oxopyrrolidin-2-yl)methoxy)-7-methoxyisoquinoline-6-carboxamide] | demonstrated efficacy | dose-dependently inhibits | reduces levels | reduces | 50-60% | 50-60% | inhibit LPS-induced TNFα in a dose-dependent manner | inhibit ear swelling in a dose-dependent manner | significantly reduced | suppression of CRP; also recorded: dose-dependently reduced | low |  |  |  |  |
| C[C@@H]1CCN(C(=O)CC#N)C[C@@H]1N(C)c1ncnc2[nH]ccc12 [tofacitinib, 3-((3R,4R)-4-Methyl-3-(methyl(7H-pyrrolo[2,3-d]pyrimidin-4-yl)amino)piperidin-1-yl)-3-oxopropanenitrile] |  |  |  |  |  |  |  |  |  |  |  | approximately 60% | approximately 80% | inhibits | reduces levels |
